Results on 1 compound are retold here after publication PMC6981454, “Promising 2,6,9-Trisubstituted Purine Derivatives for Anticancer Compounds: Synthesis, 3D-QSAR, and Preliminary Biological Assays” (International Journal of Molecular Sciences, 2019).

SMILES strings stand for the structures.

In one test the test system is HL-60 cells. In words: Cell cycle analysis, PI flow cytometry. Format: cell-based, human. To be noted: HL-60, 25 µM, 48 h. How it is done:
Considering that apoptotic mechanisms are associated with the G1/S boundary cell cycle arrest and the inhibition of cell cycle progression is an important factor to control cancer cell growth, we were interested in investigating whether 7h affects the cell cycle of HL-60 cells. We analyzed the cell cycle distribution of the cells stained with PI using flow cytometry. […] This effect is in agreement with apoptotic mechanisms.
HL60 cells were plated in 6-well plates at a density of 2.0 × 10^5 cells/1.5 mL/well, and grown overnight at 37 °C in a 5% CO2 humidified atmosphere. Cells were treated with compounds 7h at 25 µM concentration or 1% DMSO (controls) for 48 h. Aliquots of cells were collected, pelleted, washed, and fixed with ethanol (70% v/v) for at least 30 min at 4 °C. Cells were twice resuspended in PBS, and after centrifugation and elimination of the supernatant, resuspended in a solution containing PBS, PI ([…], Invitrogen), RNase A (20 mg/mL, Invitrogen). After a final incubation for 1 h in the dark at 37 °C; PI signal was measured using a FACS canto II flowcytometer (BD; Mountain View, CA) with a 488 nm excitation laser, captured, and FACS Diva was used as the acquisition software. The percentage of cells in each phase was analyzed using the FCS Express v6 software. Three independent biological replicates were performed.

The subject of another test is p53. Description: p53-dependent transcriptional activity reporter assay (β-galactosidase) in Arn-8 cells. Format: cell-based, human. The conditions noted are these: p53 reporter assays. How it is done:
Table S3. Results of p53 activity of compounds 4a-u and 7a-j.
Compound fold p53 activity […]
p53-dependent transcriptional activity
To measure p53-dependent transcriptional activity, -galactosidase activity was determined in the human melanoma cell line Arn-8, stably transfected with a p53-responsive reporter construct pRGC foslacZ as described before. After 24 h incubation with the inhibitors, the cells were permeabilized with 0.3% Triton X-100 for 15 min, and then 4-methylumbelliferon-ß-D-galactopyranoside was added as a substrate to a final concentration of 80 µM. […]
fluorescence was measured at 355/460 nm (ex/em) with a Fluoroskan Ascent microplate reader […]
Figure S6. Dose-response effect of roscovitine on p53 activity in ARN8 cells (control experiment).
(1 picture or pasted object on this page, not shown here)
In general terms: Reporter assays use an easily measured gene product as a stand-in for the process of interest.

With `O=[N+]([O-])c1ccc(N2CCN(c3nc(Cl)nc4c3ncn4C3CCCC3)CC2)cc1` [7h, 2-Chloro-9-cyclopentyl-6-(4-(4-nitrophenyl)piperazin-1-yl)-9H-purine], the “effect on cell cycle distribution” value with HL-60 cells is given as “accumulation of cells in S cell cycle phase”. For the same compound, the “effect on p53 activation” value in the test on p53 is “no effect on p53 activation”.
